Where two headings read alike, the source gives them in different places.
Legend:
[1] = assay type: physicochemical; conditions: for Viscosity, Initial: Epoxy Composition 3 (Table 8) with the named Lewis Acid Additive, before storage; for 7d (increase in viscosity in %) / Viscosity, 7d / 15 d (increase in viscosity in %) / Viscosity, 15 d: Epoxy Composition 3 with the named Lewis Acid Additive; for 7d (increase in viscosity in %) / Viscosity, 7d: stored at 50°C for 7 days; for 15 d (increase in viscosity in %) / Viscosity, 15 d: stored at 50°C for 15 days
Experimental: The A1 value gave the viscosity in Pascal seconds.
The epoxy resin was put in a Speedmixer cup (Hauschild Engineering), the thixotrope and dicyandiamide were added, and the raw materials mixed at 3500 s^-1 for 5 min. The accelerator and the additive were then weighed into the resin formulation and the mixture again speedmixed at 3500 s^-1 for 15 s. Formulations were stored at 50 °C. The complex viscosity was determined after 7 d and 15 d. Table 9. Viscosity of adhesive formulations stored at 50°C for 7 and 15 days in Pa*s.

[2] = cited from earlier work

Structure (SMILES)	Viscosity, Initial [1] [Pa*s]	7d (increase in viscosity in %) [1] [%]	Viscosity, 7d [1] [Pa*s]	15 d (increase in viscosity in %) [1] [%]	Viscosity, 15 d [1] [Pa*s]	solubility in water ([2]; at 25°C) [g/100g]	solubility in water ([2]; at 25°C, printed in brackets beside the g/100g value) [g/L]	solubility in water ([2]; at 17.8°C)
CCCCCCCCCCCCCCCCCC(=O)[O-].[Al+3].[OH-].[OH-] [AMS, Aluminum monostearate]	53	245	130	337	179			
[Cl-].[Cl-].[Zn+2] [ZnCl2, Zinc chloride]	54	140	76	292	158	432	4320	
[O]=[Zn] [ZnO, Zinc oxide]	48	233	112	17235	8273			solubility in water 0.0004% at 17.8 °C

From patent EP4442727A1, “EPOXY RESIN COMPOSITIONS COMPRISING A LEWIS ACID” (priority 2023, dated 2024)
